This test addresses T1, human cloned CHRM5 receptor (M5_CHO) (Homo sapiens, UniProt P08912).
T1 construct: expressed in transfected cells; host or cells: CHO (M5_CHO)
T1 sequence (P08912 1-532): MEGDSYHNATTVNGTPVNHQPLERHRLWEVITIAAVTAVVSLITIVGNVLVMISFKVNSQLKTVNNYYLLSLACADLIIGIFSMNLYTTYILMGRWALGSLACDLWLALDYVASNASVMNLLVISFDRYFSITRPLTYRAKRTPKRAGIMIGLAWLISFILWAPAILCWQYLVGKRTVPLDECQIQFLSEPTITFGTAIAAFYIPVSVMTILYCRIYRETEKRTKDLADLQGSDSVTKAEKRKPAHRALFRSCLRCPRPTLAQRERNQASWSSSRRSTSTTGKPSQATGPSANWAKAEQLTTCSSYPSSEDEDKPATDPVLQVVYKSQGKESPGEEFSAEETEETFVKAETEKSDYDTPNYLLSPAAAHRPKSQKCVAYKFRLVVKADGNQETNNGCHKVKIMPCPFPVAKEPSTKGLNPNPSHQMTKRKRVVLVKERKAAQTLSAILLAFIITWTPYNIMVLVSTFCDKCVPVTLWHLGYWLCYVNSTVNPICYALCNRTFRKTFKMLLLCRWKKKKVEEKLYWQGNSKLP
The experiment in a line: CHRM5 Ca++ Flux Assay (agonist mode, FDSS 7000EX). In kind it is cell-based. The settings on record: for Emax: Percent Activity measured to EC100 of Carbachol, read-out: M5 FDSS PA; for pEC50: agonist mode, geometric mean if tested more than once, read-out: M5 FDSS EC50. In a few lines:
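Stable CHO-K1 lines (human M3 or M5), calcium-dye loaded ≥1 h, assayed in Ca/Mg-free HBSS + 20 mM HEPES + 2.5 mM probenecid. 11-pt dose response, triplicate, 3 min fluorescence read. 4-parameter regression; % activity vs carbachol EC100.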

pEC50: −log10 of the molar value. Where only a bound is given, the exact number is not on record here.

For the molecule `COC(C)(C)COc1ccccc1C1CCN([C@@H]2CCC3(C2)CN(C(=O)C2COC2)C3)CC1` [Example 7HH, (R)-(6-(4-(2-(2-methoxy-2-methylpropoxy)phenyl)piperidin-1-yl)-2-azaspiro[3.4]octan-2-yl)(oxetan-3-yl)methanone], the Emax was 0% and the pEC50 was < 4.60.

Regarding `CC(C)Oc1cc(F)ccc1C1CCN([C@@H]2CCC3(C2)CN(C(=O)C2COC2)C3)CC1` [Example 6D, (R)-(6-(4-(4-fluoro-2-isopropoxyphenyl)piperidin-1-yl)-2-azaspiro[3.4]octan-2-yl)(oxetan-3-yl)methanone], the Emax stood at 0% and the pEC50 was < 4.60.

With `COCCOc1ccccc1C1CCN([C@@H]2CCC3(C2)CN(c2ccnnc2)C3)CC1` [Example 5Z, (R)-6-(4-(2-(2-methoxyethoxy)phenyl)piperidin-1-yl)-2-(pyridazin-4-yl)-2-azaspiro[3.4]octane], the Emax worked out at 0% and the pEC50 was < 4.60.

On to `COCCOc1ccccc1C1CCN([C@@H]2CCC3(C2)CN(c2nnco2)C3)CC1` [Example 2C], for which the Emax was determined as 0% and the pEC50 was < 4.60.

As for `O=C(C1COC1)N1CC2(CC[C@@H](N3CCC(c4ccccc4OC4CC4)CC3)C2)C1` [Example 7A, (R)-(6-(4-(2-cyclopropoxyphenyl)piperidin-1-yl)-2-azaspiro[3.4]octan-2-yl)(oxetan-3-yl)methanone], the Emax amounted to 0% and the pEC50 was < 4.60.

Turning to `c1ccc(C2CCN([C@@H]3CCC4(C3)CN(c3cncnc3)C4)CC2)c(O[C@@H]2CCOC2)c1` [Example 1P, (R)-2-(pyrimidin-5-yl)-6-(4-(2-(((R)-tetrahydrofuran-3-yl)oxy)phenyl)piperidin-1-yl)-2-azaspiro[3.4]octane], the Emax was 0% and the pEC50 was < 4.60.

For `FC1(COc2ccccc2C2CCN([C@@H]3CCC4(C3)CN(c3nncs3)C4)CC2)CCOCC1` [Example 1J, (R)-2-(6-(4-(2-((4-fluorotetrahydro-2H-pyran-4-yl)methoxy)phenyl)piperidin-1-yl)-2-azaspiro[3.4]octan-2-yl)-1,3,4-thiadiazole], the Emax was found to be 0% and the pEC50 was < 4.60.

Turning to `CC(C)(O)COc1ccccc1C1CCN([C@@H]2CCC3(C2)CN(c2ncns2)C3)CC1` [Example 3K, (R)-1-(2-(1-(2-(1,2,4-thiadiazol-5-yl)-2-azaspiro[3.4]octan-6-yl)piperidin-4-yl)phenoxy)-2-methylpropan-2-ol], the Emax was 0% and the pEC50 was < 4.60.

Regarding `CC(C)COc1ccccc1C1CCN([C@@H]2CCC3(C2)CN(C(=O)C2COC2)C3)CC1` [Example 7F, (R)-(6-(4-(2-isobutoxyphenyl)piperidin-1-yl)-2-azaspiro[3.4]octan-2-yl)(oxetan-3-yl)methanone], the Emax came out at 0% and the pEC50 is < 4.60.

With `FC1(COc2ccccc2C2CCN([C@@H]3CCC4(C3)CN(c3nnco3)C4)CC2)CCOCC1` [Example 2D, (R)-2-(6-(4-(2-((4-fluorotetrahydro-2H-pyran-4-yl)methoxy)phenyl)piperidin-1-yl)-2-azaspiro[3.4]octan-2-yl)-1,3,4-oxadiazole], the Emax is 0% and the pEC50 was < 4.60.

In the case of `c1ccc(C2CCN([C@@H]3CCC4(C3)CN(c3cncnc3)C4)CC2)c(OCC2CCOCC2)c1` [Example 1M, (R)-2-(pyrimidin-5-yl)-6-(4-(2-((tetrahydro-2H-pyran-4-yl)methoxy)phenyl)piperidin-1-yl)-2-azaspiro[3.4]octane], the Emax was found to be 0% and the pEC50 was < 4.60.

For the molecule `c1ccc(C2CCOC2)c(C2CCN([C@@H]3CCC4(C3)CN(c3nnco3)C4)CC2)c1` (stereo partly drawn) [Example 2K, 2-((6R)-6-(4-(2-(tetrahydrofuran-3-yl)phenyl)piperidin-1-yl)-2-azaspiro[3.4]octan-2-yl)-1,3,4-oxadiazole], the Emax is 0% and the negative logarithm of the EC50 (pEC50) is < 4.60.

Take `c1ccc(C2CCN([C@@H]3CCC4(C3)CN(c3nncs3)C4)CC2)c(OC[C@@H]2COCCO2)c1` [Example 3C, 2-((R)-6-(4-(2-(((S)-1,4-dioxan-2-yl)methoxy)phenyl)piperidin-1-yl)-2-azaspiro[3.4]octan-2-yl)-1,3,4-thiadiazole]: the Emax came out at 0% and the pEC50 was < 4.60.

As for `c1ccc(C2CCN([C@@H]3CCC4(C3)CN(c3cncnc3)C4)CC2)c(C2CCOCC2)c1` [Example 5BB, (R)-2-(pyrimidin-5-yl)-6-(4-(2-(tetrahydro-2H-pyran-4-yl)phenyl)piperidin-1-yl)-2-azaspiro[3.4]octane], the Emax was 0% and the pEC50 was < 4.60.

Turning to `Fc1cncc(N2CC3(CC[C@@H](N4CCC(c5ccccc5C5CCOCC5)CC4)C3)C2)c1` [Example 5AA, (R)-2-(5-fluoropyridin-3-yl)-6-(4-(2-(tetrahydro-2H-pyran-4-yl)phenyl)piperidin-1-yl)-2-azaspiro[3.4]octane], the Emax was 0% and the pEC50 is < 4.60.

On to `c1ccc(C2CCN([C@@H]3CCC4(C3)CN(c3nnco3)C4)CC2)c(-c2ncco2)c1` [Example 2M, (R)-2-(6-(4-(2-(oxazol-2-yl)phenyl)piperidin-1-yl)-2-azaspiro[3.4]octan-2-yl)-1,3,4-oxadiazole], for which the Emax is 0% and the pEC50 is < 4.60.

As for `CC(C)(F)COc1ccccc1C1CCN([C@@H]2CCC3(C2)CN(C(=O)C2COC2)C3)CC1` [Example 7B, (R)-(6-(4-(2-(2-fluoro-2-methylpropoxy)phenyl)piperidin-1-yl)-2-azaspiro[3.4]octan-2-yl)(oxetan-3-yl)methanone], the Emax was found to be 0% and the pEC50 was < 4.60.

In the case of `O=C(C1COC1)N1CC2(CC[C@@H](N3CCC(c4ccccc4OCC(F)F)CC3)C2)C1` [Example 7JJ, (R)-(6-(4-(2-(2,2-difluoroethoxy)phenyl)piperidin-1-yl)-2-azaspiro[3.4]octan-2-yl)(oxetan-3-yl)methanone], the Emax was 9% and the pEC50 is 6.03.

For `CC(C)(O)COc1ccccc1C1CCN([C@@H]2CCC3(C2)CN(c2ncncn2)C3)CC1` [Example 5U, (R)-1-(2-(1-(2-(1,3,5-triazin-2-yl)-2-azaspiro[3.4]octan-6-yl)piperidin-4-yl)phenoxy)-2-methylpropan-2-ol], the Emax was 0% and the pEC50 is < 4.60.

Take `CC(C)(O)COc1ccccc1C1CCN([C@@H]2CCC3(C2)CN(c2nnco2)C3)CC1` [Example 2A, (R)-1-(2-(1-(2-(1,3,4-oxadiazol-2-yl)-2-azaspiro[3.4]octan-6-yl)piperidin-4-yl)phenoxy)-2-methylpropan-2-ol]: the Emax amounted to 0% and the pEC50 is < 4.60.

On to `c1ccc(C2CCN([C@@H]3CCC4(C3)CN(c3cncnc3)C4)CC2)c(OC2CCOCC2)c1` [Example 1L, (R)-2-(pyrimidin-5-yl)-6-(4-(2-((tetrahydro-2H-pyran-4-yl)oxy)phenyl)piperidin-1-yl)-2-azaspiro[3.4]octane], for which the Emax came out at 0% and the pEC50 is < 4.60.

Regarding `O=C(C1COC1)N1CC2(CC[C@H](N3CCC(c4ccccc4OC(F)(F)F)CC3)C2)C1` (single isomer, unassigned) [Example 8G], the Emax stood at 0% and the pEC50 is < 4.60.

With `COCCOc1ccccc1C1CCN([C@@H]2CCC3(C2)CN(c2ncns2)C3)CC1` [Example 3J, (R)-5-(6-(4-(2-(2-methoxyethoxy)phenyl)piperidin-1-yl)-2-azaspiro[3.4]octan-2-yl)-1,2,4-thiadiazole], the Emax came to 0% and the pEC50 is < 4.60.

Regarding `c1ccc(C2CCN([C@@H]3CCC4(C3)CN(c3nnco3)C4)CC2)c(CC2CCOCC2)c1` [Example 2L, (R)-2-(6-(4-(2-((tetrahydro-2H-pyran-4-yl)methyl)phenyl)piperidin-1-yl)-2-azaspiro[3.4]octan-2-yl)-1,3,4-oxadiazole], the Emax worked out at 0% and the pEC50 is < 4.60.

For `c1ccc(C2CCN([C@@H]3CCC4(C3)CN(c3nnco3)C4)CC2)c(C2CCOCC2)c1` [Example 2H, (R)-2-(6-(4-(2-(tetrahydro-2H-pyran-4-yl)phenyl)piperidin-1-yl)-2-azaspiro[3.4]octan-2-yl)-1,3,4-oxadiazole], the Emax was 0% and the pEC50 was < 4.60.

For `c1ccc(C2CCN([C@@H]3CCC4(C3)CN(c3nnco3)C4)CC2)c(O[C@@H]2CCOC2)c1` [Example 2B, 2-((R)-6-(4-(2-(((R)-tetrahydrofuran-3-yl)oxy)phenyl)piperidin-1-yl)-2-azaspiro[3.4]octan-2-yl)-1,3,4-oxadiazole], the Emax turned out to be 0% and the negative-log EC50 (pEC50) was < 4.60.

Take `O=C(C1COC1)N1CC2(CC[C@@H](N3CCC(c4ccccc4Oc4nccs4)CC3)C2)C1` [Example 7C, (R)-oxetan-3-yl(6-(4-(2-(thiazol-2-yloxy)phenyl)piperidin-1-yl)-2-azaspiro[3.4]octan-2-yl)methanone]: the Emax worked out at 0% and the pEC50 was < 4.60.

The values above are taken from patent publication US12122761B2, “2-azaspiro[3.4]octane derivatives as M4 agonists” (NOVARTIS AG, priority 2019, dated 2024).
